Assay results published in PMC9146423, “Discovery of Nitro-azolo[1,5-a]pyrimidines with Anti-Inflammatory and Protective Activity against LPS-Induced Acute Lung Injury” (Pharmaceuticals, 2022).

Tests used:
[1] = test system: LPS-stimulated peritoneal macrophages of C57bl/6j mice; test: Cell viability of LPS-stimulated macrophages, MTT test; type: cell-based; conditions: male, C57bl/6j, mouse, 24 h, 100 μM
Protocol: (§1) Peritoneal macrophages (PM) were isolated from the peritoneal exudate of 30 male C57bl/6j mice. To accumulate PM, 1 mL of 3% peptone solution was injected intraperitoneally. After 3 days, the mice were euthanized by cervical dislocation. Cells of peritoneal exudate were obtained by aseptic washing of the abdominal cavity with 5 mL of sterile Hanks’s solution (+4–6 °C) without calcium and magnesium ions. The total number and viability of cells were assessed in a Goryaev counting chamber (Russia) with a 0.4% trypan blue staining (Sigma-Aldrich, St. Louis, MO, USA). The cell concentration was adjusted to 1.0 × 10^6 cells/mL in DMEM (Gibco) supplemented with 2 mM L-glutamine (Gibco, Waltham, MA, USA), 10% heat-inactivated fetal bovine serum (BioClot, Bavaria, Germany), 100 U/mL penicillin, and […] streptomycin (Gibco) and plated 200 μL/well in 96-well transparent plates (SPL Life Sciences Co., Ltd., Pocheon-si, Korea). After 2 h at 37 °C in a humidified atmosphere with 5% CO2, the wells were washed to remove non-adherent cells. After 24 h of incubation, 20 μL of the supernatants were substituted with 20 μL of solutions of test compounds, followed by E. coli O127:B8 LPS (100 ng/mL final concentration) after 30 min. The experiments were run in 3 independent replicates.
(§2) The activity of lactate dehydrogenase (LDH) in a cell culture medium served as a marker of membrane permeability and cell death. Aliquotes of supernatants were taken after 24 h of inoculation with test compounds, mixed with 250 μL of 0.194 nM NADH solution in 54 mM phosphate-buffered saline (pH 7.5). Then, 25 μL of a 6.48 mM pyruvate solution was added to the mixture. The optical density was followed at a wavelength of 340 nm for 20 min. The MTT-test was performed 24 h after incubations of cells with tested compounds. Briefly, 20 μL of MTT solution was added to each well, incubated at 37 °C in a humidified atmosphere containing 5% CO2 for 4 h. The culture medium was removed, the cells were lysed, and formazan crystals were dissolved in 150 μL DMSO. The plates were shaken at room temperature for 10 min, and the optical density was measured in a microplate reader Infinite M200 PRO (Tecan, Grödig, Austria) at a wavelength of 565 nm.

[2] = as above; type: cell-based; conditions: male, C57bl/6j, mouse
Protocol: as §1, §2

[3] = test system: LPS-stimulated peritoneal macrophages of C57bl/6j mice; test: IL-6 secretion by LPS-stimulated peritoneal macrophages (ELISA); type: cell-based; conditions: Mus musculus, Peritoneal macrophage, 95% C.I. 1.43-9.87 μM
Protocol: as §1, with “After 24 h of incubation, 20 μL of the supernatants were substituted with 20 μL of solutions of test compounds, followed by E. coli O127:B8 LPS (100 ng/mL final concentration) after 30 min. The experiments were run in 3 independent replicates.” left out
The cell supernatant was collected and centrifuged at 1000 g for 20 min in a 2–16PK centrifuge (Sigma, Osterode am Harz, Germany). The concentrations of IL-6 and TNF-α were determined by ELISA using commercial kits (Cloud-clone, Houston, TX, USA) with a microplate reader Infinite M200 PRO (Tecan, Grödig, Austria).

[4] = test system: peritoneal macrophages of C57bl/6j mice; test: Cytotoxicity, lactate dehydrogenase (LDH) activity in cell supernatants; type: cell-based, mouse
Protocol: as §1
as §2, with “Aliquotes of supernatants were taken after 24 h of inoculation with test compounds, mixed with 250 μL of 0.194 nM NADH solution in 54 mM phosphate-buffered saline (pH 7.5).” left out

[5] = as above; type: cell-based, mouse; conditions: male, C57bl/6j, mouse, LPS-stimulated peritoneal macrophages
Protocol: as §1
as §2, with “Aliquotes of supernatants were taken after 24 h of inoculation with test compounds, mixed with 250 μL of 0.194 nM NADH solution in 54 mM phosphate-buffered saline (pH 7.5).” left out

[6] = test system: LPS-stimulated peritoneal macrophages of C57bl/6j mice; test: Inhibition of LPS-induced NO synthesis (nitrite accumulation, Griess reagent) in peritoneal macrophages; type: cell-based, mouse; conditions: Mus musculus, Peritoneal macrophage
Protocol: as §1
The accumulation of the nitrite anion (a stable end product of NO decomposition produced by iNOS) in supernatants was determined using a standard Griess reagent. Briefly, 50 μL of supernatants were collected 22 h after incubation of PM, and the test and control compounds were mixed with 50 μL of 1% […] in 2.5% H3PO4 and 50 μL of 0.1% N-(1-naphthyl) ethylenediamine in 2.5% H3PO4. After incubation at 23 °C for 10 min in an orbital shaker, the optical density was determined at a wavelength of 550 nm with a microplate reader Infinite M200 PRO (Tecan, Grödig, Austria).

With `Cc1nc2nnnn2c(NCCc2ccc(O)cc2)c1[N+](=O)[O-]` [Compound 9g, N-[2-(4-Hydroxyphenyl)ethyl]-5-methyl-6-nitrotetrazolo-[1,5-a]pyrimidin-7-amine] the “Cell Viability vs. LPS Control, MTT Test” value [1] was 84.65 ± 5.83%, the CC50 at 24 h [2] was > 100 µM and the IC50 [3] was 3.72 µM. For the same molecule, the “Cytotoxic properties during the phagocytosis experiment (LDH)” value ([4]; up to 72 h of incubation) was “No cytotoxic properties were noted”, the “Effect on viability of the macrophages” value ([4]; up to a concentration of 50 μM) was “did not affect the viability” and the CC50 at 24 h [5] was > 100 µM. The inhibition at 100 µM ([6]; 22 h, 100 μM, m ± SD, read-out: Inhibition of NO Synthesis vs. LPS Control) was 58.5 ± 5.93% and the IC50 ([6]; LPS-stimulated peritoneal macrophages) was 3.72 µM.
